In article PMC9748900, “Unconventional isoquinoline-based SERMs elicit fulvestrant-like transcriptional programs in ER+ breast cancer cells” (NPJ Breast Cancer, 2022):
Entries after “also recorded” stand apart in the source; their conditions may differ. Read-outs that look alike come from different tables or passages of the source.

Assays:
[1] = system: Ishikawa endometrial cells; experiment: Alkaline phosphatase (AP) assay in Ishikawa cells; type: cell-based, human; conditions: 72 h; for AP1 Induction: 1 nM E2 or 1 μM compound, absorbance at 405 nm, mean + std. dev., n = 3-9
Text: SERM enhancement of ERα accumulation in breast cancer cells correlates with uterotrophic activities[22],[30]. Despite the inclusion of side arms from known SERDs, most T6Is appeared SERM-like in breast cancer cells as they increased ERα levels. To measure the SERM-agonist activities of the T6Is, we employed an AP activity assay in Ishikawa endometrial cells[22],[32],[40]. […] Many T6Is show unexpected AP activities in these cells. […] Therefore, we would expect these SERMs to show a greater induction of AP (Supplementary Fig. 5). […] This difference was significant (p = 0.004) compared to 4OHT, which measured 0.68 ± 0.12 absorbance units. In most studies of SERM-agonist activities, AP assays are combined with increases in uterine wet-weight in vivo[22],[41],[42].
AP assays were performed as described. Briefly, 15,000 Ishikawa cells were seeded into 96-well plates then placed in serum-starved medium for 48–72 h. Cells were treated for three days with veh, hormone, SERM, or SERD. The media was aspirated and the cells were frozen at −80 °C for at least 24 h. Cells were thawed then incubated with p-nitrophenyl phosphate (ThermoFisher) chromogenic AP substrate. After 60 min at 40 °C, absorbance was read at 405 nm on a BioTek Cytation 5 plate reader.

Ishikawa cells = experiment: Ishikawa cell count (endometrial proliferation); type: cell-based, human; conditions: 1 nM E2 or 1 μM antiestrogen, 144 h
[2] = system: transcriptome of T47D breast cancer cells; experiment: RNA sequencing of T47D cells; type: cell-based
Experimental: We next used RNA transcriptomic analysis (RNAseq) to identify differentially affected genes. […] All sequencing runs were performed with three replicates per treatment.
T47D breast cancer cells were grown in 6-well dishes at 50,000 cells per well. […] After 24 h, they were placed in serum-starved media for 48 h. […] RNA was isolated using a Qiagen RNeasy Kit then sent to Novogene for sequencing and bioinformatics analysis.

[3] = system: gene expression in MCF7:WS8 breast cancer cells; experiment: qPCR gene expression in MCF7:WS8 cells
[4] = system: gene expression in T47D breast cancer cells; experiment: qPCR gene expression in T47D cells; type: cell-based; conditions: 1 μM + 1 nM E2, 16 h
[5] = system: patients with advanced disease with prior hormone therapy; conditions: compared to standard of care ref 6, cited from earlier work
ERα = molecular target: T1, ERα (Homo sapiens, UniProt P03372); experiment: ERE transcriptional reporter gene assay in MCF7 cells; type: cell-based; parameters: endogenous in cells; host or cells: MCF7 cells with 3x-ERE-GFP reporter
T1 sequence (P03372 1-595): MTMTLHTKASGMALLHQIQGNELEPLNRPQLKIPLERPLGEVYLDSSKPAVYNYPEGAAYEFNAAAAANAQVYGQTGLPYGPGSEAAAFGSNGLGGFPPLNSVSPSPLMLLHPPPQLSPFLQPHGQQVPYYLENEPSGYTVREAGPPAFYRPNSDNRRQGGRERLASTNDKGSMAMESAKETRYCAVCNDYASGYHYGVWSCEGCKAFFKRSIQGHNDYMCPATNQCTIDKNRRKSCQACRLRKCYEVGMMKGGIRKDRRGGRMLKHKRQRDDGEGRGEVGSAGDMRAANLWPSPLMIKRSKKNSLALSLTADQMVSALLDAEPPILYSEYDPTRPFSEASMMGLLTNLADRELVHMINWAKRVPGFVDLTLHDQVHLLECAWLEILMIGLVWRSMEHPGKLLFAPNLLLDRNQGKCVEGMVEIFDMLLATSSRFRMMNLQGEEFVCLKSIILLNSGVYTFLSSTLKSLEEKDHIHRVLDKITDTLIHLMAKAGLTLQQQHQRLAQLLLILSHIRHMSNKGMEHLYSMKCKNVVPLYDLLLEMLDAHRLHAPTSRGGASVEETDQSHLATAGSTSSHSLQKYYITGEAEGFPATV
Experimental: A cyclopropyl group was used in place of RAD1901’s ethylamine. […] We initially synthesized 4 derivatives comprised of different pharmacophores on the analogous steroidal A ring (Fig. 2d) and used an ERE reporter gene assay in MCF7 breast cancer cells to measure their transcriptional inhibitory activities.
This assay was performed in accordance with a previous report. MCF7 breast cancer cells with a 3x-estrogen response element-green fluorescent protein (GFP) reporter gene construct under a CMV promoter were plated in 96-well dishes at 3000 cells per well. Cells were cultured for 48 h in stripped media that included charcoal stripped fetal bovine serum (FBS). Cells were treated with increasing concentrations of antiestrogen (5 pm to 1 µM) for 24 h. Subsequently, percent GFP-positive cells were imaged using a BioTek Cytation 5 live cell imager. All assays were performed three times with three technical replicates each.

T47D breast cancer cells = experiment: Cellular proliferation (label-free cell count), T47D; type: cell-based; conditions: 1 nM E2, normalized to vehicle
Experimental: In addition, we used a crystal violet assay to measure the effect of T6I-14-1 on MCF7 viability.
MCF7, MCF7:WS:8, Y537S ESR1 MCF7 and T47D breast cancer cell lines were grown in 96-well dishes at a starting cell count of 1000 cells per well. […] Cells were grown in a BioSpa attached to a BioTek Cytation 5 and were automatically counted every twelve hours for 7–10 days or until the E2-only wells reached confluence. Media was replaced every 4 days and drug was maintained in each media change. Each study was repeated three times with three technical replicates each.

[6] = MCF7, 1 nM E2, read-out: Log(IC50) (converted)

| Compound | AP1 Induction [1] | AP induction (in words) ([1]; 1 μM) | further results |
| --- | --- | --- | --- |
| CC/C(=C(\c1ccc(O)cc1)c1ccc(OCCN(C)C)cc1)c1ccccc1 [4OHT, 4-hydroxytamoxifen, reference compound] | 0.67 + 0.12 | robust stimulation of AP activity | Ishikawa cell count (Ishikawa cells): marginal but insignificant increase to cell count |
| C[C@]12CC[C@@H]3c4ccc(O)cc4CC[C@H]3[C@@H]1CC[C@@H]2O [E2, 17β-estradiol] | – | – | SUMO-related differentially expressed genes (RNAseq) [2]: downregulates SUMO1 and upregulates desumoylating enzymes including SENP1 and SENP8; Ishikawa cell count (Ishikawa cells): robust enhancement of proliferation |
| Oc1ccc2c(c1)CC[C@H](c1ccccc1)[C@@H]2c1ccc(OCCN2CCCC2)cc1 [Laso, lasofoxifene] | 0.51 + 0.16 | – | AP activity ([1]; 1 μM): 0.51 ± 0.16 absorbance units; cMYC mRNA ([3]; MCF7:WS8, 1 μM + 1 nM E2): upregulated cMYC but it was significantly less (p = 0.02) than T6I-29-1A; CDK1 mRNA [4]: slightly upregulated CDK1; RPS6KL1 mRNA [4]: only slightly enriched |
| CCNCCc1ccc(CN(CC)c2cc(OC)ccc2[C@@H]2CCc3cc(O)ccc3C2)cc1 [RAD1901, elacestrant] | 0.28 + 0.08 | – | reduced risk of disease progression or death ([5]; all patients): 30%; reduced risk of disease progression or death ([5]; patients with ESR1 mutations, including the Y537S): 45%; CDK1 mRNA ([3]; MCF7:WS8): downregulated its expression; CDK1 mRNA [4]: slightly upregulated CDK1; RPS6KL1 mRNA [4]: only slightly enriched |
| O=C(CC(F)(F)F)N1C(c2ccc(OCCN3CCCC3)cc2)c2ccc(O)cc2CC12CC2 (centres unmarked) [T6I-1C] | – | – | IC50 (ERα; [6]): 0.17 µM |
| O=C(c1ccccc1)N1C(c2ccc(OCCN3CCCC3)cc2)c2ccc(O)cc2CC12CC2 (centres unmarked) [T6I-1D] | – | – | IC50 (ERα; [6]): 0.123 µM; IC50 (ERα; MCF7, 1 nM E2, read-out: anti-transcriptional IC50): ~0.1 µM |
| CCN1CC(COc2ccc(C3c4ccc(O)cc4CC4(CC4)N3C(=O)c3ccccc3)cc2)C1 (centres unmarked) [T6I-3] | 0.34 + 0.07 | – | anti-proliferative activity, cell count after 7 days (Fig. 7) (T47D breast cancer cells): did not improve anti-proliferative activities |
| O=C(c1ccccc1)N1C(c2ccc(OCC3CN(CCCF)C3)cc2)c2ccc(O)cc2CC12CC2 (centres unmarked) [T6I-4A] | 0.69 + 0.16 | significant induction of AP compared to the propylazetidine-containing T6I-4 | – |
| O=C(c1ccccc1)N1C(c2ccc(OCC3CN(CCCCl)C3)cc2)c2ccc(O)cc2CC12CC2 (centres unmarked) [T6I-4B] | 0.61 + 0.10 | significant induction of AP compared to the propylazetidine-containing T6I-4 | – |
| CCCN1CC(COc2ccc(C3c4ccc(O)cc4CC4(CC4)N3C(=O)c3ccccc3)cc2)C1 (centres unmarked) [T6I-4] | 0.24 + 0.07 | AP induction similar to a SERD; also recorded: no measurable AP1 activity | – |
| CCCCN1CCC(COc2ccc(C3c4ccc(O)cc4CC4(CC4)N3C(=O)c3ccccc3)cc2)C1 (centres unmarked) [T6I-22] | 0.55 + 0.06 | – | – |
| CCCCCN1CCC(COc2ccc(C3c4ccc(O)cc4CC4(CC4)N3C(=O)c3ccccc3)cc2)C1 (centres unmarked) [T6I-23] | 0.44 + 0.08 | – | – |
| O=C(c1ccccc1)N1C(c2ccc(OCC3CCN(CCCF)C3)cc2)c2ccc(O)cc2CC12CC2 (centres unmarked) [T6I-29] | 0.63 + 0.08 | greater induction of AP1 compared to its separated chiral species | anti-proliferative activity, cell count after 7 days (Fig. 7) (T47D breast cancer cells): slightly improved efficacy versus propyl alone |
| CCCN1CCC(CCc2ccc(C3c4ccc(O)cc4CC4(CC4)N3C(=O)c3ccccc3)cc2)C1 (centres unmarked) [T6I-Me] | 0.57 + 0.08 | – | – |
| CCCN1CCC(CNc2ccc(C3c4ccc(O)cc4CC4(CC4)N3C(=O)c3ccccc3)cc2)C1 (centres unmarked) [T6I-NH] | 0.50 + 0.09 | – | – |
| CCCN1CCC(CSc2ccc(C3c4ccc(O)cc4CC4(CC4)N3C(=O)c3ccccc3)cc2)C1 (centres unmarked) [T6I-SH] | 0.42 + 0.07 | – | – |
